# Laboratory results: PubChem BioAssay (NCI)
#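 1) Cells in 96-well plates. 2) Compound, 48 h, 5 concentrations. 3) Linear interpolation between surrounding doses. 4) Unreached endpoint = highest concentration. GI50 = concentration required for 50% inhibition of growth. At the TGI there is no net growth.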
# What was measured:
# Assay in all cases: DTP human tumour cell line panel, 48 h
# UACC-62 melanoma = tested on: UACC-62 melanoma
# CCRF-CEM leukemia = tested on: CCRF-CEM leukemia
# SF-268 CNS = tested on: SF-268 CNS
# OVCAR-5 ovarian = tested on: OVCAR-5 ovarian
# K-562 leukemia = tested on: K-562 leukemia
# BT-549 breast = tested on: BT-549 breast
# 786-0 renal = tested on: 786-0 renal
# ACHN renal = tested on: ACHN renal
# HL-60(TB) leukemia = tested on: HL-60(TB) leukemia
# SF-295 CNS = tested on: SF-295 CNS
# M14 melanoma = tested on: M14 melanoma
# MOLT-4 leukemia = tested on: MOLT-4 leukemia
# UACC-257 melanoma = tested on: UACC-257 melanoma
# CAKI-1 renal = tested on: CAKI-1 renal
# SR leukemia = tested on: SR leukemia
# KM12 colon = tested on: KM12 colon
# RXF 393 renal = tested on: RXF 393 renal
# SNB-75 CNS = tested on: SNB-75 CNS
# HCC-2998 colon = tested on: HCC-2998 colon
# NCI-H23 lung = tested on: NCI-H23 lung
# NCI-H226 lung = tested on: NCI-H226 lung
# HT29 colon = tested on: HT29 colon
# SN12C renal = tested on: SN12C renal
# IGROV1 ovarian = tested on: IGROV1 ovarian
# HS 578T breast = tested on: HS 578T breast
# OVCAR-4 ovarian = tested on: OVCAR-4 ovarian
# SW-620 colon = tested on: SW-620 colon
# MDA-MB-231 breast = tested on: MDA-MB-231 breast
# A549 NSCLC = tested on: A549 NSCLC
# SNB-19 CNS = tested on: SNB-19 CNS
# COLO 205 colon = tested on: COLO 205 colon
# SF-539 CNS = tested on: SF-539 CNS
# HCT-116 colon = tested on: HCT-116 colon
# U251 CNS = tested on: U251 CNS
# T-47D breast = tested on: T-47D breast
# SK-OV-3 ovarian = tested on: SK-OV-3 ovarian
# SK-MEL-2 melanoma = tested on: SK-MEL-2 melanoma
# LOX IMVI melanoma = tested on: LOX IMVI melanoma
# UO-31 renal = tested on: UO-31 renal
# PC-3 prostate = tested on: PC-3 prostate
# A498 renal = tested on: A498 renal
# SK-MEL-5 melanoma = tested on: SK-MEL-5 melanoma
# RPMI-8226 leukemia = tested on: RPMI-8226 leukemia
# DU-145 prostate = tested on: DU-145 prostate
# OVCAR-3 ovarian = tested on: OVCAR-3 ovarian
# MALME-3M melanoma = tested on: MALME-3M melanoma
# NCI/ADR-RES ovarian = tested on: NCI/ADR-RES ovarian
# NCI-H522 lung = tested on: NCI-H522 lung
# OVCAR-8 ovarian = tested on: OVCAR-8 ovarian
# HOP-92 NSCLC = tested on: HOP-92 NSCLC
# TK-10 renal = tested on: TK-10 renal
# MCF7 breast = tested on: MCF7 breast
# EKVX NSCLC = tested on: EKVX NSCLC
# MDA-MB-435 = tested on: MDA-MB-435
# NCI-H460 lung = tested on: NCI-H460 lung
# HCT-15 colon = tested on: HCT-15 colon
# SK-MEL-28 melanoma = tested on: SK-MEL-28 melanoma
# HOP-62 NSCLC = tested on: HOP-62 NSCLC
structure (smiles),measurement,setting,value
Cc1cn(-c2cc(NC(=O)c3cncc(C#Cc4cnc5ccc(O[C@@H]6CCOC6)nn45)c3)cc(C(F)(F)F)c2)cn1,GI50,UACC-62 melanoma,204 nM
same,TGI,UACC-62 melanoma,949 nM
same,GI50,CCRF-CEM leukemia,48.6 nM
same,GI50,SF-268 CNS,191 nM
same,TGI,SF-268 CNS,1030 nM
same,GI50,OVCAR-5 ovarian,268 nM
same,TGI,OVCAR-5 ovarian,1670 nM
same,TGI,K-562 leukemia,3250 nM
same,GI50,BT-549 breast,625 nM
same,TGI,BT-549 breast,1730 nM
same,GI50,786-0 renal,286 nM
same,TGI,786-0 renal,936 nM
same,GI50,ACHN renal,689 nM
same,TGI,ACHN renal,2770 nM
same,GI50,HL-60(TB) leukemia,181 nM
same,TGI,HL-60(TB) leukemia,613 nM
same,GI50,SF-295 CNS,355 nM
same,TGI,SF-295 CNS,2410 nM
same,GI50,M14 melanoma,138 nM
same,TGI,M14 melanoma,353 nM
same,GI50,MOLT-4 leukemia,64.2 nM
same,TGI,MOLT-4 leukemia,678 nM
same,GI50,UACC-257 melanoma,467 nM
same,TGI,UACC-257 melanoma,2750 nM
same,GI50,CAKI-1 renal,495 nM
same,TGI,CAKI-1 renal,1510 nM
same,GI50,SR leukemia,52.7 nM
same,TGI,SR leukemia,936 nM
same,TGI,KM12 colon,1790 nM
same,GI50,RXF 393 renal,215 nM
same,TGI,RXF 393 renal,535 nM
same,GI50,SNB-75 CNS,< 43.6 nM
same,TGI,SNB-75 CNS,226 nM
same,GI50,HCC-2998 colon,320 nM
same,TGI,HCC-2998 colon,1500 nM
same,GI50,NCI-H23 lung,190 nM
same,TGI,NCI-H23 lung,784 nM
same,GI50,NCI-H226 lung,56.6 nM
same,TGI,NCI-H226 lung,454 nM
same,GI50,HT29 colon,188 nM
same,TGI,HT29 colon,947 nM
same,GI50,SN12C renal,85.6 nM
same,TGI,SN12C renal,601 nM
same,GI50,IGROV1 ovarian,103 nM
same,TGI,IGROV1 ovarian,534 nM
same,GI50,HS 578T breast,124 nM
same,TGI,HS 578T breast,559 nM
same,GI50,OVCAR-4 ovarian,155 nM
same,TGI,OVCAR-4 ovarian,1000 nM
same,GI50,SW-620 colon,157 nM
same,TGI,SW-620 colon,557 nM
same,GI50,MDA-MB-231 breast,74 nM
same,TGI,MDA-MB-231 breast,403 nM
same,GI50,A549 NSCLC,206 nM
same,TGI,A549 NSCLC,958 nM
same,GI50,SNB-19 CNS,261 nM
same,TGI,SNB-19 CNS,1750 nM
same,GI50,COLO 205 colon,75.7 nM
same,TGI,COLO 205 colon,213 nM
same,GI50,SF-539 CNS,39.8 nM
same,TGI,SF-539 CNS,231 nM
same,GI50,HCT-116 colon,79.7 nM
same,TGI,HCT-116 colon,616 nM
same,GI50,U251 CNS,246 nM
same,TGI,U251 CNS,1020 nM
same,GI50,T-47D breast,442 nM
same,TGI,T-47D breast,4260 nM
same,GI50,SK-OV-3 ovarian,392 nM
same,TGI,SK-OV-3 ovarian,2230 nM
same,GI50,SK-MEL-2 melanoma,210 nM
same,TGI,SK-MEL-2 melanoma,512 nM
same,GI50,LOX IMVI melanoma,85.6 nM
same,TGI,LOX IMVI melanoma,535 nM
same,GI50,UO-31 renal,1450 nM
same,TGI,UO-31 renal,3550 nM
same,GI50,PC-3 prostate,280 nM
same,TGI,PC-3 prostate,4210 nM
same,GI50,A498 renal,504 nM
same,TGI,A498 renal,1090 nM
same,GI50,SK-MEL-5 melanoma,615 nM
same,TGI,SK-MEL-5 melanoma,1710 nM
same,GI50,RPMI-8226 leukemia,397 nM
same,GI50,DU-145 prostate,222 nM
same,TGI,DU-145 prostate,1580 nM
same,GI50,OVCAR-3 ovarian,217 nM
same,TGI,OVCAR-3 ovarian,849 nM
same,GI50,MALME-3M melanoma,164 nM
same,TGI,MALME-3M melanoma,693 nM
same,GI50,NCI/ADR-RES ovarian,6460 nM
same,TGI,NCI/ADR-RES ovarian,23100 nM
same,GI50,NCI-H522 lung,111 nM
same,TGI,NCI-H522 lung,330 nM
same,GI50,OVCAR-8 ovarian,257 nM
same,TGI,OVCAR-8 ovarian,1140 nM
same,GI50,HOP-92 NSCLC,22.8 nM
same,TGI,HOP-92 NSCLC,96.3 nM
same,GI50,TK-10 renal,362 nM
same,TGI,TK-10 renal,1560 nM
same,GI50,MCF7 breast,72.9 nM
same,TGI,MCF7 breast,717 nM
same,GI50,EKVX NSCLC,257 nM
same,TGI,EKVX NSCLC,1270 nM
same,GI50,MDA-MB-435,144 nM
same,TGI,MDA-MB-435,714 nM
same,GI50,NCI-H460 lung,144 nM
same,TGI,NCI-H460 lung,699 nM
same,GI50,HCT-15 colon,687 nM
same,TGI,HCT-15 colon,2370 nM
same,GI50,SK-MEL-28 melanoma,312 nM
same,TGI,SK-MEL-28 melanoma,1090 nM
same,GI50,HOP-62 NSCLC,183 nM
same,TGI,HOP-62 NSCLC,883 nM
